From patent US12559506B2, “Indazole based compounds and associated methods of use” (Arvinas Operations, Inc., priority 2021, dated 2026)
Where two headings read alike, the source gives them in different places.

Molecular target: T1, LRRK2 (endogenous, HiBit tagged) (Homo sapiens, UniProt Q5S007)
T1 construct: endogenous in cells; host or cells: HEK293 cells with HiBit knock-in at the endogenous LRRK2 locus, stably expressing firefly luciferase
Assay: Endogenous LRRK2 degradation assay, endogenous gene C-terminally HiBit-tagged in HEK293 cells (Nano-Glo Dual Luciferase)
Format: cell-based
How it was run: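 LRRK2-HiBit quantified via Nano-Glo Dual Luciferase in HEK293 knock-in cells co-expressing firefly luciferase, after 24 h exposure to compound (1 μM final top, 1:3, 11 points). Values normalised to DMSO median per plate and curve-fitted; Alamar Blue viability run alongside.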

[1] = endogenous HiBit-tagged LRRK2 in HEK293 cells, 24 hours treatment, read-out: **Endogenous WT Dmax (%)
[2] = endogenous HiBit-tagged LRRK2 in HEK293 cells, 24 hours treatment, read-out: *Endogenous WT DC50
[3] = endogenous HiBit-tagged LRRK2 in HEK293 cells, 24 hours treatment, read-out: Endogenous WT DC50
[4] = endogenous HiBit-tagged LRRK2 in HEK293 cells, 24 hours treatment, read-out: Endogenous WT Dmax

T1 sequence (Q5S007 whole entry): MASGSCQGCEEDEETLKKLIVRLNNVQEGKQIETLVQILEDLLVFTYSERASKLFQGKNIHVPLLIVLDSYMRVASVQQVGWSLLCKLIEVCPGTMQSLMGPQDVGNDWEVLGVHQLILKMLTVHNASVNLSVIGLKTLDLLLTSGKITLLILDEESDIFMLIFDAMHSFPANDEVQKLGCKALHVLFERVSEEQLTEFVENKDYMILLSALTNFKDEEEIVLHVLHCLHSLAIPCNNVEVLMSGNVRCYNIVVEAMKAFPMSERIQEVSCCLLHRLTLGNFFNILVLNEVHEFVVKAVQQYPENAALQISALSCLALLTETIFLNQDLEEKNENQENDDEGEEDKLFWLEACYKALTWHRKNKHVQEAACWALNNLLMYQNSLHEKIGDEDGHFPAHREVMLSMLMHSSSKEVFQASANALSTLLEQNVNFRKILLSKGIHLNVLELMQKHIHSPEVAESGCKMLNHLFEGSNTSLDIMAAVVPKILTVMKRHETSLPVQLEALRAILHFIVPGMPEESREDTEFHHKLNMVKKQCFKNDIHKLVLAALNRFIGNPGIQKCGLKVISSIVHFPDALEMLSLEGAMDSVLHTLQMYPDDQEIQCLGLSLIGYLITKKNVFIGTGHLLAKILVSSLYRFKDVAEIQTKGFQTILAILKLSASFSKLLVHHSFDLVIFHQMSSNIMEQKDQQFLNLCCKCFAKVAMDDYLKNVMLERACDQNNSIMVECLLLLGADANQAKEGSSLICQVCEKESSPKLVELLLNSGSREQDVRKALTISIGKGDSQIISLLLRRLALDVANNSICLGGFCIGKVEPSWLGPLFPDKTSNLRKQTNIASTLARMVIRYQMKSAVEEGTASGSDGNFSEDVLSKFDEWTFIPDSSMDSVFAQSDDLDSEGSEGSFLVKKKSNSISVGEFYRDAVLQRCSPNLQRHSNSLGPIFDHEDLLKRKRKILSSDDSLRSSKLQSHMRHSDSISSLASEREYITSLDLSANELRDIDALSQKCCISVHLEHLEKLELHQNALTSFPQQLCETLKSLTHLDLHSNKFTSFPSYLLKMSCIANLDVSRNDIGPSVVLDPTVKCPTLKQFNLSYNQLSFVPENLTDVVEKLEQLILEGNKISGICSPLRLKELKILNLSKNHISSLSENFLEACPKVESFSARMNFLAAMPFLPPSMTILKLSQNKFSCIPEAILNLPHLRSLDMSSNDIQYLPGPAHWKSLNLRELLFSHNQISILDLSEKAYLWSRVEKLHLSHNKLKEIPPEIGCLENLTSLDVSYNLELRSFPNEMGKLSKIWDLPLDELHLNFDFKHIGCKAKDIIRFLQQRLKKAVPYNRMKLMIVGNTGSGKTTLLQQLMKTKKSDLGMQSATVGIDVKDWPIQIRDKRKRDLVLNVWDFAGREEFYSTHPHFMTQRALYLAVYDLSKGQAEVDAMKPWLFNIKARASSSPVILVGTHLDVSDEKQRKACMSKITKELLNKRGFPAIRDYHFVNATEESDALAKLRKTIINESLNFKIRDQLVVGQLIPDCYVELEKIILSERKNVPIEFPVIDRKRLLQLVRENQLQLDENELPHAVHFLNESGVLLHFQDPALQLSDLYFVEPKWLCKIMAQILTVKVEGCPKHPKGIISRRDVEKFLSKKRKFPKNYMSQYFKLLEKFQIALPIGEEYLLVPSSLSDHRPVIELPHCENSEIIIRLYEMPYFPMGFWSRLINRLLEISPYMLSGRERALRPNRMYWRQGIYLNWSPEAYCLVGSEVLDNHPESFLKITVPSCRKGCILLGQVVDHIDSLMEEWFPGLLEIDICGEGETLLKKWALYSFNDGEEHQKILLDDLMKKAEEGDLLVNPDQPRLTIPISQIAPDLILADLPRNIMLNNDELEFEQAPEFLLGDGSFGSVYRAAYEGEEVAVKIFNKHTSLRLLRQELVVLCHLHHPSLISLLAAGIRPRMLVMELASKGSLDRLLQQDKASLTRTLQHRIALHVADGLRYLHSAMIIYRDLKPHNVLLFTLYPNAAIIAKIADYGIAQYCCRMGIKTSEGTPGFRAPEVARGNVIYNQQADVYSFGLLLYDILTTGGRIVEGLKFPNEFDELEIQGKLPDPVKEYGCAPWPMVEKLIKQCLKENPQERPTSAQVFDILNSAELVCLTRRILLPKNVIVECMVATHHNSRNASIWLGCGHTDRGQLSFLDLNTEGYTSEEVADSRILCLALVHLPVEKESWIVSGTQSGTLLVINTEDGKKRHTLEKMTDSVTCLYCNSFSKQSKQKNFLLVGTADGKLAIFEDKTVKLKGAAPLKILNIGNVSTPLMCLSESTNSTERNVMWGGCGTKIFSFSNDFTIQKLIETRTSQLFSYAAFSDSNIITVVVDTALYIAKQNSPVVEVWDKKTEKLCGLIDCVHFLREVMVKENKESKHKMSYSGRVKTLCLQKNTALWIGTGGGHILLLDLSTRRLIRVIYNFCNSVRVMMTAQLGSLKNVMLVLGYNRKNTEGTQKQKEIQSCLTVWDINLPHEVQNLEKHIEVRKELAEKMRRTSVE

SMILES | Dmax [1] [%] | DC50 [2] [nM] | DC50 [3] [nM] | Dmax [4] [%] | other results
CC1(Oc2ccc3[nH]nc(-c4cc(N5CCC(CC6(F)CCN(CC7CCN(c8ccc9c(c8F)CN(C8CCC(=O)NC8=O)C9=O)CC7)CC6)CC5)ncn4)c3c2)CC1 (centres unmarked) [Compound 206, 3-[4-fluoro-5-[4-[[4-fluoro-4-[[1-[6-[5-(1-methylcyclopropoxy)-1H-indazol-3-yl]pyrimidin-4-yl]-4-piperidyl]methyl]-1-piperidyl]methyl]-1-piperidyl]-1-oxo-isoindolin-2-yl]piperidine-2,6-dione] |  |  | < 10 | ≥ 70 | 
CC1(Oc2cc3c(-c4cc(N5CCC(CN6CCN(CC7CCN(c8ccc9c(c8F)CN(C8CCC(=O)NC8=O)C9=O)CC7)C(C)(C)C6)CC5)ncn4)n[nH]c3cn2)CC1 (centres unmarked) [Compound 270, 3-{5-[4-({2,2-dimethyl-4-[(1-{6-[5-(1-methylcyclopropoxy)-1H-pyrazolo[3,4-c]pyridin-3-yl]pyrimidin-4-yl}piperidin-4-yl)methyl]piperazin-1-yl}methyl)piperidin-1-yl]-4-fluoro-1-oxo-2,3-dihydro-1H-isoindol-2-yl}piperidine-2,6-dione] | ≥ 70 | < 10 |  |  | 
C[C@H]1CN(c2cc(-c3[nH]nc4ccc(OC5(C)CC5)cc34)ncn2)CCN1CCN1CCC(C(=O)N2CCN(c3ccc4c(c3)C(=O)N(C3CCC(=O)NC3=O)C4=O)CC2)CC1 (stereo partly drawn) [Compound 58, 2-(2,6-dioxopiperidin-3-yl)-5-[4-(1-{2-[(2S)-2-methyl-4-{6-[5-(1-methylcyclopropoxy)-2H-indazol-3-yl]pyrimidin-4-yl}piperazin-1-yl]ethyl}piperidine-4-carbonyl)piperazin-1-yl]-2,3-dihydro-1H-isoindole-1,3-dione] |  |  |  |  | Dmax (endogenous HiBit-tagged LRRK2 in HEK293 cells, 24 hours, read-out: **Endogenous WT Dmax (%)): 50 to 70%; DC50 (endogenous HiBit-tagged LRRK2 in HEK293 cells, 24 hours, read-out: *Endogenous WT DC50): < 10 nM
COc1c(N2CC3(CCN(CCN4CCN(c5cc(-c6n[nH]c7ccc(OC8(C)CC8)cc67)ncn5)CC4)CC3(F)F)C2)ccc2c1CN(C1CCC(=O)NC1=O)C2=O (centres unmarked) [Compound 363, 3-(5-{5,5-difluoro-7-[2-(4-{6-[5-(1-methylcyclopropoxy)-1H-indazol-3-yl]pyrimidin-4-yl}piperazin-1-yl)ethyl]-2,7-diazaspiro[3.5]nonan-2-yl}-4-methoxy-1-oxo-2,3-dihydro-1H-isoindol-2-yl)piperidine-2,6-dione] |  |  | < 10 | 50 to 70 | 
COc1c(N2CCC(CN3CCN(CC4CCN(c5cc(-c6n[nH]c7cnc(OC8(C)CC8)cc67)ncn5)CC4)CC3)CC2)ccc2c1CN(C1CCC(=O)NC1=O)C2=O (centres unmarked) [Compound 253, 3-{4-methoxy-5-[4-({4-[(1-{6-[5-(1-methylcyclopropoxy)-1H-pyrazolo[3,4-c]pyridin-3-yl]pyrimidin-4-yl}piperidin-4-yl)methyl]piperazin-1-yl}methyl)piperidin-1-yl]-1-oxo-2,3-dihydro-1H-isoindol-2-yl}piperidine-2,6-dione] |  |  | < 10 | 50 to 70 | 
COc1c(N2CCC(CN3CCN(CC4CCN(c5cc(-c6n[nH]c7cnc(OC8(C)CC8)cc67)ncn5)CC4)C(C)(C)C3)CC2)ccc2c1CN(C1CCC(=O)NC1=O)C2=O (centres unmarked) [Compound 338, 3-{5-[4-({3,3-dimethyl-4-[(1-{6-[5-(1-methylcyclopropoxy)-1H-pyrazolo[3,4-c]pyridin-3-yl]pyrimidin-4-yl}piperidin-4-yl)methyl]piperazin-1-yl}methyl)piperidin-1-yl]-4-methoxy-1-oxo-2,3-dihydro-1H-isoindol-2-yl}piperidine-2,6-dione] | 50 to 70 | < 10 |  |  | 
CC1(Oc2ccc3n[nH]c(-c4cc(N5CC(OCC6(F)CCN(CC7CCN(c8ccc9c(c8F)CN(C8CCC(=O)NC8=O)C9=O)CC7)CC6)C5)ncn4)c3c2)CC1 (centres unmarked) [Compound 200, 3-[4-fluoro-5-[4-[[4-fluoro-4-[[1-[6-[5-(1-methylcyclopropoxy)-2H-indazol-3-yl]pyrimidin-4-yl]azetidin-3-yl]oxymethyl]-1-piperidyl]methyl]-1-piperidyl]-1-oxo-isoindolin-2-yl]piperidine-2,6-dione] |  |  |  |  | Dmax (endogenous HiBit-tagged LRRK2, HEK293 cells, 24 hours, read-out: **Endogenous WT Dmax (%)): ≥ 70%; DC50 (endogenous HiBit-tagged LRRK2, HEK293 cells, 24 hours, read-out: *Endogenous WT DC50): < 10 nM
CC1(Oc2cc3c(-c4cc(N5CCN(C[C@@H]6CCN(CC7CCN(c8ccc9c(c8F)CN(C8CCC(=O)NC8=O)C9=O)CC7)C[C@@H]6F)CC5)ncn4)n[nH]c3cc2F)CC1 (some centres unmarked) [Compound 299, 3-[4-fluoro-5-(4-{[(3r,4s)-3-fluoro-4-[(4-{6-[6-fluoro-5-(1-methylcyclopropoxy)-1H-indazol-3-yl]pyrimidin-4-yl}piperazin-1-yl)methyl]piperidin-1-yl]methyl}piperidin-1-yl)-1-oxo-2,3-dihydro-1H-isoindol-2-yl]piperidine-2,6-dione] | 50 to 70 | < 10 |  |  | 
CC1(Oc2ccc3[nH]nc(-c4cc(N5CCC(CN6CCC(F)(CC7CCN(c8ccc9c(c8F)CN(C8CCC(=O)NC8=O)C9=O)CC7)CC6)CC5)ncn4)c3c2)CC1 (centres unmarked) [Compound 231, 3-[4-fluoro-5-[4-[[4-fluoro-1-[[1-[6-[5-(1-methylcyclopropoxy)-1H-indazol-3-yl]pyrimidin-4-yl]-4-piperidyl]methyl]-4-piperidyl]methyl]-1-piperidyl]-1-oxo-isoindolin-2-yl]piperidine-2,6-dione] |  |  | < 10 | 50 to 70 | 

Now from value to compound, other results behind:

Dmax [1] [%] | DC50 [2] [nM] | DC50 [3] [nM] | Dmax [4] [%] | SMILES | other results
50 to 70 | < 10 |  |  | COc1c(N2CCC(CN3CCN(C(C)(C)C4CCN(c5cc(-c6n[nH]c7ccc(OC8(C)CC8)cc67)ncn5)CC4)CC3)CC2)ccc2c1CN(C1CCC(=O)NC1=O)C2=O (centres unmarked) [Compound 331, 3-{4-methoxy-5-[4-({4-[2-(1-{6-[5-(1-methylcyclopropoxy)-1H-indazol-3-yl]pyrimidin-4-yl}piperidin-4-yl)propan-2-yl]piperazin-1-yl}methyl)piperidin-1-yl]-1-oxo-2,3-dihydro-1H-isoindol-2-yl}piperidine-2,6-dione] | 
 |  | < 10 | 50 to 70 | CC1(Oc2ccc3[nH]nc(-c4cc(N5CCC(O[C@H]6CC[C@H](CN7CCN(c8ccc9c(c8Cl)CN(C8CCC(=O)NC8=O)C9=O)CC7)CC6)CC5)ncn4)c3c2)CC1 (some centres unmarked) [Compound 249, 3-[4-chloro-1-oxo-5-(4-{[(1r,4r)-4-[(1-{6-[5-(1-methylcyclopropoxy)-1H-indazol-3-yl]pyrimidin-4-yl}piperidin-4-yl)oxy]cyclohexyl]methyl}piperazin-1-yl)-2,3-dihydro-1H-isoindol-2-yl]piperidine-2,6-dione] | 
50 to 70 | < 10 |  |  | CC1(Oc2ccc3[nH]nc(-c4cc(N5CCC(CN6CCN(C[C@H]7CCN(c8ccc9c(c8F)CN(C8CCC(=O)NC8=O)C9=O)C7)CC6)CC5)ncn4)c3c2)CC1 (stereo partly drawn) [Compound 330, 3-{4-fluoro-5-[(3R)-3-({4-[(1-{6-[5-(1-methylcyclopropoxy)-1H-indazol-3-yl]pyrimidin-4-yl}piperidin-4-yl)methyl]piperazin-1-yl}methyl)pyrrolidin-1-yl]-1-oxo-2,3-dihydro-1H-isoindol-2-yl}piperidine-2,6-dione] | 
50 to 70 | < 10 |  |  | COc1c(N2CCC(CN3CCC(OC4CN(c5cc(-c6[nH]nc7ccc(OC8(C)CC8)cc67)ncn5)C4)CC3)CC2)ccc2c1CN(C1CCC(=O)NC1=O)C2=O (centres unmarked) [Compound 298, 3-{4-methoxy-5-[4-({4-[(1-{6-[5-(1-methylcyclopropoxy)-2H-indazol-3-yl]pyrimidin-4-yl}azetidin-3-yl)oxy]piperidin-1-yl}methyl)piperidin-1-yl]-1-oxo-2,3-dihydro-1H-isoindol-2-yl}piperidine-2,6-dione] | 
50 to 70 | < 10 |  |  | CC1(Oc2ccc3[nH]nc(-c4cc(N5CCC(O[C@H]6CCN(CC7CCN(c8ccc9c(c8F)CN(C8CCC(=O)NC8=O)C9=O)CC7)C(C)(C)C6)CC5)ncn4)c3c2)CC1 (stereo partly drawn) [Compound 308, 3-(5-(4-(((S)-2,2-dimethyl-4-((1-(6-(5-(1-methylcyclopropoxy)-1H-indazol-3-yl)pyrimidin-4-yl)piperidin-4-yl)oxy)piperidin-1-yl)methyl)piperidin-1-yl)-4-fluoro-1-oxoisoindolin-2-yl)piperidine-2,6-dione] | 
 |  | < 10 | 50 to 70 | COc1c(N2CCC(CN3CCN(CC4CCN(c5cc(-c6n[nH]c7ccc(OC8(C)CC8)cc67)ncn5)CC4)[C@@H](C)C3)CC2)ccc2c1CN(C1CCC(=O)NC1=O)C2=O (stereo partly drawn) [Compound 256, 3-[4-methoxy-5-(4-{[(3S)-3-methyl-4-[(1-{6-[5-(1-methylcyclopropoxy)-1H-indazol-3-yl]pyrimidin-4-yl}piperidin-4-yl)methyl]piperazin-1-yl]methyl}piperidin-1-yl)-1-oxo-2,3-dihydro-1H-isoindol-2-yl]piperidine-2,6-dione] | 
50 to 70 | < 10 |  |  | C[C@@H]1CN(c2cc(-c3n[nH]c4ccc(OC5(C)CC5)cc34)ncn2)C[C@H](C)N1C[C@H]1CC[C@H](OC2CCN(c3ccc4c(c3F)CN(C3CCC(=O)NC3=O)C4=O)CC2)CC1 (stereo partly drawn) [Compound 352, 3-[4-fluoro-1-oxo-5-(4-{[(1r,4r)-4-{[(2R,6S)-2,6-dimethyl-4-{6-[5-(1-methylcyclopropoxy)-1H-indazol-3-yl]pyrimidin-4-yl}piperazin-1-yl]methyl}cyclohexyl]oxy}piperidin-1-yl)-2,3-dihydro-1H-isoindol-2-yl]piperidine-2,6-dione] | 
